From the supplement of paper PMC10702517
± gives the standard deviation.

Assay: chemical recovery from spiked human plasma; higher = better extraction
Conditions: pooled human plasma
[1] = extraction method: SPE only (HLB 96-well)
[2] = extraction method: solvent precipitation (ACN + hexane)
[3] = extraction method: SPE only (HLB 96-well), PES comparison experiment
[4] = extraction method: PES+SPE (3 d PDMS equilibration then HLB SPE)

SMILES	chemical recovery [1] [%]	chemical recovery [2] [%]	chemical recovery [3] [%]	chemical recovery [4] [%]
O=C(O)C(F)(F)C(F)(F)C(F)(F)C(F)(F)C(F)(F)C(F)(F)C(F)(F)C(F)(F)C(F)(F)C(F)(F)F [Perfluoroundecanoic-acid]	26.8 ± 6			
c1ccc2c(c1)ccc1c3ccccc3ccc21 [Chrysene]	10.9 ± 2.5			
Nc1nc(=O)n([C@@H]2CS[C@H](CO)O2)cc1F [Emtricitabine]	14.2 ± 4.3	71.1 ± 4.1		
C[C@H](CCC(=O)O)[C@H]1CC[C@H]2[C@@H]3[C@H](O)C[C@@H]4C[C@H](O)CC[C@]4(C)[C@H]3CC[C@]12C [Chenodeoxycholic-acid]	37.4 ± 7.9	74.9 ± 4.7		
CCCCCCCCCCCCS(=O)(=O)O [1-Dodecanesulfonic-acid]	25.6 ± 3	52.1 ± 2.3		
CN/C(=N\CCSCc1nc[nH]c1C)NC#N [Cimetidine]		54.8 ± 1.7		
O=C(O)C(F)(F)C(F)(F)C(F)(F)C(F)(F)C(F)(F)C(F)(F)C(F)(F)F [Perfluorooctanoic acid]	30.2 ± 2.8	89.3 ± 19	33.6 ± 8.8	
C=C(C)C(N)=O [Methacrylamide]				0.198 ± 0.34
c1ccc2cc3c(cc2c1)sc1ccccc13 [Benzo[b]naphtho(2,3-d)thiophene]	0.871 ± 0.26	63.3 ± 6.8		61.7 ± 20
O=C(O)c1ccccc1Nc1cccc(C(F)(F)F)c1 [Flufenamic-acid]	44.9 ± 11	51.1 ± 1.4		58 ± 5.7
Nc1nc(NC2CC2)c2ncn([C@H]3C=C[C@@H](CO)C3)c2n1 [Abacavir]		77 ± 3.4		
Nc1ccc2nc3ccc(N)cc3nc2c1 [2,8-Diaminophenazine]	38.5 ± 14	53.2 ± 6.7		11.8 ± 0.64
Cc1ccc2ccccc2c1 [2-Methylnaphthalene]	2.91 ± 1.5			
Clc1nc2ccccc2s1		5.44 ± 5.7		
CC(C1=C(CCN(C)C)Cc2ccccc21)c1ccccn1 (stereo unspecified) [Dimetindene]	24.1 ± 2.6	58.5 ± 5.4		0.267 ± 0.076
Nc1ccc2nc3c(N)cccc3nc2c1 [1,7-Diaminophenazine]	52.7 ± 6.3			15 ± 1.5
Cc1c([N+](=O)[O-])c(C)c([N+](=O)[O-])c(C(C)(C)C)c1[N+](=O)[O-] [Musk xylene]	97.1 ± 31	33.5 ± 9.3		
O=C(O)CCCCCCCC(=O)O [Azelaic-acid]	53.1 ± 4			
O=C(O)/C=C/c1c[nH]c2ccccc12 [Indole-3-acrylic-acid]	45.2 ± 13			37.5 ± 5
CC1=NNC(=O)N(/N=C/c2cccnc2)C1 [Pymetrozine]	13.5 ± 3.4	75.4 ± 2.9		
CC(C)(C)c1ccc2oc(-c3ccc(-c4nc5cc(C(C)(C)C)ccc5o4)s3)nc2c1 [Fluorescent-Brightener-184]	0.938 ± 0.39			
CC(C)CCCCOC(=O)c1ccccc1C(=O)OCCCCC(C)C [Diisoheptyl-phthalate]	12.9 ± 3.1	103 ± 14		
CC(=O)OCC(=O)[C@@]1(O)CC[C@H]2[C@@H]3CCC4=CC(=O)CC[C@]4(C)[C@H]3[C@@H](O)C[C@@]21C [Hydrocortisonacetate]			47.4 ± 6.2	

SMILES	chemical recovery [1] [%]	chemical recovery [2] [%]	chemical recovery [3] [%]	chemical recovery [4] [%]
CNC(=O)Oc1cccc(/N=C/N(C)C)c1 [Formetanate]	8.98 ± 3.5	2.27 ± 3.9		
NCCc1ccccc1 [Phenethylamine]	6.63 ± 4.2	47.1 ± 1.7		
O=C(O)Cc1c[nH]c2ccccc12 [Indole-3-acetic acid]			79.9 ± 19	
Cc1cc2ccccc2cc1C [2,3-Dimethylnaphthalene]	0.0627 ± 0.11			
Cc1cc(N)c2ccccc2n1 [4-Amino-2-methylquinoline]	32.7 ± 2.9	73.8 ± 2.2		27.3 ± 3.6
CCCC(C)C1(CC)C(=O)NC(=O)NC1=O (stereo unspecified) [Pentobarbital]	43.8 ± 2	75.7 ± 6.9		49.6 ± 5.1
C[C@H](CCC(=O)O)[C@H]1CC[C@H]2[C@@H]3CC[C@@H]4C[C@H](O)CC[C@]4(C)[C@H]3C[C@H](O)[C@]12C [Deoxycholic-acid]	38.5 ± 8.1	75.8 ± 6.6		
CC(=O)OCC(=O)[C@@]1(O)CC[C@H]2[C@@H]3CCC4=CC(=O)CC[C@]4(C)[C@@]3(F)[C@@H](O)C[C@@]21C [Fludrocortisone-21-acetate]			46.7 ± 4.8	
Cc1ccc2cc3ccccc3cc2c1 [2-Methylanthracene]	3.56 ± 0.86			51.5 ± 4.5
CCC1(c2ccccc2)C(=O)NCNC1=O [Primidone]	36.6 ± 3.8	76.5 ± 3.6	41.9 ± 4.5	41.5 ± 2.6
CC1(C)C(C=C(Cl)Cl)C1C(=O)OCc1cccc(Oc2ccccc2)c1 (stereo unspecified) [Permethrin]	2.59 ± 1	35.4 ± 3.1		55 ± 9.7
CCN(CCO)c1ccc(/N=N/c2sc3cc(OC)ccc3[n+]2C)cc1 [Basic-Blue-41]		18.5 ± 1.6		
ClC=C(c1ccc(Cl)cc1)c1ccc(Cl)cc1 [4,4'-DDMU]	1.65 ± 0.55	30.1 ± 2.7		54.3 ± 19
O=C(O)CCCCCCC(=O)O [Suberic-acid]	82.2 ± 2.5			99.8 ± 34
Clc1ccc(C(c2ccc(Cl)cc2)C(Cl)(Cl)Cl)cc1 [4,4'-DDT]	3.49 ± 1.1	56.7 ± 8.1		81.7 ± 22
O=S(=O)(O)c1ccc2ccc(S(=O)(=O)O)cc2c1 [2,7-Naphthalenedisulfonic acid]	60.6 ± 17	72.8 ± 11		
COCCOCCOC [Diglyme]	11.5 ± 3.1			
CC(C)C1CCC(Cc2ccc(Cl)cc2)C1(O)Cn1cncn1 (stereo unspecified) [Ipconazole]	45.5 ± 5.7	75.8 ± 5.9		56.7 ± 6
O=S(=O)(O)C(F)(F)C(F)(F)C(F)(F)C(F)(F)C(F)(F)C(F)(F)C(F)(F)C(F)(F)F [Perfluorooctanesulfonic acid]	26.8 ± 0.38			
O=C(NC(=O)c1c(F)cccc1F)Nc1ccc(Oc2ccc(C(F)(F)F)cc2Cl)cc1F [Flufenoxuron]	25.7 ± 5.2		24 ± 6.8	
COC(=O)CCc1cc(C(C)(C)C)c(O)c(C(C)(C)C)c1 [Methyl-3-(3,5-di-tert-butyl-4-hydroxyphenyl)propionate]	24.9 ± 3.3	57.6 ± 7		
COc1cc(-c2ccc(N)c(OC)c2)ccc1N [o-Dianisidine]	15.5 ± 3	46.7 ± 7.3		0.374 ± 0.16
N=C(N)NC(=O)Cc1c(Cl)cccc1Cl [Guanfacine]	44 ± 3.3	57.9 ± 5		43.1 ± 2.6

SMILES	chemical recovery [1] [%]	chemical recovery [2] [%]	chemical recovery [3] [%]	chemical recovery [4] [%]
CCCN(CCOc1c(Cl)cc(Cl)cc1Cl)C(=O)NC=O [Prochloraz BTS445-96]		71.33 ± 0.59		
CCC(C(N)=O)(C(N)=O)c1ccccc1 [Phenylethylmalonamide]	37.2 ± 2.4		60.3 ± 8.1	43.1 ± 4.2
CC(C)NCC(O)COc1ccc(CC(N)=O)cc1 (stereo unspecified) [Atenolol]	14 ± 6.1	76 ± 2.5		17.1 ± 4.2
CN(C)c1ccncc1 [4-(Dimethylamino)pyridine]	2.53 ± 2.1	60.5 ± 4		0.689 ± 0.15
COc1nc(C)nc(NC(=O)NS(=O)(=O)c2ccccc2Cl)n1 [Chlorosulfuron]		67.9 ± 3.4		
O=S(=O)(O)CCNC1CCCCC1 [2-(Cyclohexylamino)-ethansulfonic-acid]	2.37 ± 1.9	72.2 ± 2.7		0.697 ± 0.13
CCCCCCCCCC(=O)N(C)C [N,N-Dimethyldecan-1-amide]	13.6 ± 0.95			27.7 ± 10
CCCC(C)(COC(N)=O)COC(=O)NC(C)C (stereo unspecified) [Carisoprodol]		78.1 ± 5.9		
Cc1nccc2c1[nH]c1ccccc12 [Harman]	34.9 ± 2.5	74.4 ± 3.2	48.2 ± 6	36.2 ± 5.5
Cc1c(C=O)c(=O)n(-c2ccccc2)n1C [4-Formyl-antipyrine]	34.4 ± 4.1	69.5 ± 2.1		41.3 ± 3.5
Cc1c(Cl)cccc1Nc1ccccc1C(=O)O [Tolfenamic-acid]	36.5 ± 12	47.5 ± 1.9		56.7 ± 5.2
CC(C)Oc1cccc(NC(=O)c2ccccc2C(F)(F)F)c1 [Flutolanil]	38.9 ± 0.5	60.8 ± 4.7		53.5 ± 4.5
CCOC(=O)c1ccc(O)cc1 [Ethylparaben]	45.3 ± 3	66.3 ± 2.4		56.1 ± 4
Cc1c(N)c(=O)n(-c2ccccc2)n1C [4-Aminoantipyrine]	8.59 ± 2.6	67.1 ± 4.8		6.85 ± 1.7
OC[C@H]1O[C@H](O[C@]2(CCl)O[C@H](CCl)[C@@H](O)[C@@H]2O)[C@H](O)[C@@H](O)[C@H]1Cl [Sucralose]	21.6 ± 1.4		58.3 ± 3.9	23 ± 2.4
CC(C)N1C(=O)c2cc(O)ccc2NS1(=O)=O [6-Hydroxybentazone]	33.9 ± 7.6	70.3 ± 3.6		29 ± 4
Nc1c(Br)cc(Br)cc1CN[C@H]1CC[C@H](O)CC1 [Ambroxol]	37.1 ± 7.2		29.4 ± 6.9	5.97 ± 0.52
CN(Cc1cnc2nc(N)nc(N)c2n1)c1ccc(C(=O)N[C@@H](CCC(=O)O)C(=O)O)cc1 [Methotrexate]	60.1 ± 3.9		38.1 ± 4.1	60.3 ± 4
CC(C)(C)c1cc(CCC(=O)NCCCCCCNC(=O)CCc2cc(C(C)(C)C)c(O)c(C(C)(C)C)c2)cc(C(C)(C)C)c1O [Irganox-1098]		55.3 ± 6.4		
Oc1ccc(Cl)cc1O [3,4-Dihydroxy-chlorobenzene]	39.4 ± 4.7			5.54 ± 1.6
COc1ccc2[nH]c(SCc3ncc(C)c(OC)c3C)nc2c1 [Omeprazole-sulfide]	42 ± 3.9	72.5 ± 3.6		19.8 ± 2.5
CC1(C)CC(NC(=O)c2cccc(C(=O)NC3CC(C)(C)NC(C)(C)C3)c2)CC(C)(C)N1 [Nylostab-S-EED]		70.4 ± 5.2		
